The values below come from ChEMBL document CHEMBL1909046, “DrugMatrix in vitro pharmacology data”.

Assay [1] in a line: DRUGMATRIX: Glutamate, AMPA radioligand binding (ligand: [3H] AMPA). The following applies: Not Active = under 50% inhibition at 10 µM. Type of assay: cell membranes, Rattus norvegicus, Wistar, Cerebral cortex, Membrane.
The next assay addresses T1, B2 bradykinin receptor (Homo sapiens, UniProt P30411).
T1 sequence (P30411 whole entry): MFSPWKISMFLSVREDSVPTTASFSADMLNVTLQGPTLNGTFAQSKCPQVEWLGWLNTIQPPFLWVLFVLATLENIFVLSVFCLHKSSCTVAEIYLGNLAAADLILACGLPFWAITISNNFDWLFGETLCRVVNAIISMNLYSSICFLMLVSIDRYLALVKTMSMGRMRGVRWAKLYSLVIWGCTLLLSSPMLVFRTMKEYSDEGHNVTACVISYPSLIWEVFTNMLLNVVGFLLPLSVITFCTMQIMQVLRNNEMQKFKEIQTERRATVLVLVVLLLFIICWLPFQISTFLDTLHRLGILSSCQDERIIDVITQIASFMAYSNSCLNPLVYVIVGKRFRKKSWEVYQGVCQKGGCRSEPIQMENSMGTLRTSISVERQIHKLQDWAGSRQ
Type of assay: cell membranes, Membrane. The settings on record: chem-1.

In assay [2] the target is Tyrosine-protein kinase Lck (Homo sapiens, UniProt P06239). Nature of the assay: DRUGMATRIX: Protein Tyrosine Kinase, LCK enzyme inhibition (substrate: Poly(Glu:Tyr)). Type of assay: cell-based, Insect cells. The following applies: insect cells; Not Active = under 50% inhibition at 10 µM.
Tyrosine-protein kinase Lck, sequence (P06239 whole entry): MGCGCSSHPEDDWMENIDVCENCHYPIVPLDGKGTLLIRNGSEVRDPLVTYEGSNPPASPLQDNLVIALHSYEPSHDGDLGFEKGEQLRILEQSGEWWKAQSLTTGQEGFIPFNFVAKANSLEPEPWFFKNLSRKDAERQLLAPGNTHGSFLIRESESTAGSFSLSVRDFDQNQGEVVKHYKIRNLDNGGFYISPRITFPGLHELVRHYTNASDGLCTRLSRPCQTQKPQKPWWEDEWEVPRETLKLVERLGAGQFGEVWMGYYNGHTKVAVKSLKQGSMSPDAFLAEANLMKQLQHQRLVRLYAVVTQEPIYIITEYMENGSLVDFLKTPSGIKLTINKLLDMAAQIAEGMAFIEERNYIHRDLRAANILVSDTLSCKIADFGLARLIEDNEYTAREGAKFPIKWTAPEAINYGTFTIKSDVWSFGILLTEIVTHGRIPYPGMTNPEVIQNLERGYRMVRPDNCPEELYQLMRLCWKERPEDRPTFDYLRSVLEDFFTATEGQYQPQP
The target in assay [3] is T2, 5-hydroxytryptamine receptor 2C (Homo sapiens, UniProt P28335).
T2 sequence (P28335 whole entry): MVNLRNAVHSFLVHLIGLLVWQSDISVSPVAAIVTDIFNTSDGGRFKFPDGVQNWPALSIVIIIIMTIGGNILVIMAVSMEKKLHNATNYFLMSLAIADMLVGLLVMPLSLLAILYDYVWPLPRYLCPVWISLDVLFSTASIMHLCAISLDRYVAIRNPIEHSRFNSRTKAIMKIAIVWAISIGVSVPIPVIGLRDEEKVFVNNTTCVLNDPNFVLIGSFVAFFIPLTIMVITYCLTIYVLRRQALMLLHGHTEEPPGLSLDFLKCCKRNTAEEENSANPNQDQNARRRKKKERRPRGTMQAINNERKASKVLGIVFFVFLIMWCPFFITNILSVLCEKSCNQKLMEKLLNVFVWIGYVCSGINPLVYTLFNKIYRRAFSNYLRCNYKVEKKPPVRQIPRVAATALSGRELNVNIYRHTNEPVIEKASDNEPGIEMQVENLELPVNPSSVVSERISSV
Nature of the assay: DRUGMATRIX: Serotonin (5-Hydroxytryptamine) 5-HT2C radioligand binding (ligand: [3H] Mesulergine). Type of assay: cell membranes, CHO-K1, Membrane. The following applies: Not Active = under 50% inhibition at 10 µM.

A further assay deals with T3, Progesterone receptor (Bos taurus, UniProt Q690N0).
T3 sequence (Q690N0 whole entry): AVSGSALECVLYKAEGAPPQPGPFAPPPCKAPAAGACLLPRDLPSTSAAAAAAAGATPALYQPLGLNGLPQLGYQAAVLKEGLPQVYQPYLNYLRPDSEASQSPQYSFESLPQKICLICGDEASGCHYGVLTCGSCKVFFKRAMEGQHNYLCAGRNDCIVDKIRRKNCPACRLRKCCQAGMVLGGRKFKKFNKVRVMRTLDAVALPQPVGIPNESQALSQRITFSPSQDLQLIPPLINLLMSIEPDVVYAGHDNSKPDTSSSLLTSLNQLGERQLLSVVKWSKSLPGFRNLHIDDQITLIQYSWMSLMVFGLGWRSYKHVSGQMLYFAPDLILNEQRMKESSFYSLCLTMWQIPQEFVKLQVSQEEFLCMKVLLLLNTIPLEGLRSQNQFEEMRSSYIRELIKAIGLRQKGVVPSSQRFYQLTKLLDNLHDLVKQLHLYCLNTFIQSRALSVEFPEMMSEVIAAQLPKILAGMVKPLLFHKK
Nature of the assay: DRUGMATRIX: Progesterone radioligand binding (ligand: [3H] R-5020). Type of assay: tissue-based, Uterus. The following applies: Not Active = under 50% inhibition at 10 µM.

In the next assay the target is T4, Interstitial collagenase (Homo sapiens, UniProt P03956).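 Also: MMP-1 enzyme inhibition assay using a peptide substrate; in other assays of this panel Not Active means under 50% inhibition at 10 µM.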
T4 sequence (P03956 whole entry): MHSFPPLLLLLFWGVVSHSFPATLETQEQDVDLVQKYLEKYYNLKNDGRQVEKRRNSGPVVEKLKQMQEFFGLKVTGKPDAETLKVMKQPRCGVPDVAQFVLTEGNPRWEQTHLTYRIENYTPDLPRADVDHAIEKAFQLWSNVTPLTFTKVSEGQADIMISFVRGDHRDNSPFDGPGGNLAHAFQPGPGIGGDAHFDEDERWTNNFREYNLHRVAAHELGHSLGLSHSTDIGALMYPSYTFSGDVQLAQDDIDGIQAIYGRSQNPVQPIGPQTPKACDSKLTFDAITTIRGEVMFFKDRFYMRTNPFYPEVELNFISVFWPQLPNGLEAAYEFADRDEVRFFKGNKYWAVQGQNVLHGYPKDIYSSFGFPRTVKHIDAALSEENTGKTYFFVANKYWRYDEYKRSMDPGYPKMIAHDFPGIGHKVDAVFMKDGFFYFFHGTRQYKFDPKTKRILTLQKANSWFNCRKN
Type of assay: tissue-based, Rheumatoid synovial fibroblasts.

Assay [4] has as its target T5, Alpha-1D adrenergic receptor (Homo sapiens, UniProt P25100). Also: in other assays of this panel Not Active means under 50% inhibition at 10 µM.
T5 sequence (P25100 whole entry): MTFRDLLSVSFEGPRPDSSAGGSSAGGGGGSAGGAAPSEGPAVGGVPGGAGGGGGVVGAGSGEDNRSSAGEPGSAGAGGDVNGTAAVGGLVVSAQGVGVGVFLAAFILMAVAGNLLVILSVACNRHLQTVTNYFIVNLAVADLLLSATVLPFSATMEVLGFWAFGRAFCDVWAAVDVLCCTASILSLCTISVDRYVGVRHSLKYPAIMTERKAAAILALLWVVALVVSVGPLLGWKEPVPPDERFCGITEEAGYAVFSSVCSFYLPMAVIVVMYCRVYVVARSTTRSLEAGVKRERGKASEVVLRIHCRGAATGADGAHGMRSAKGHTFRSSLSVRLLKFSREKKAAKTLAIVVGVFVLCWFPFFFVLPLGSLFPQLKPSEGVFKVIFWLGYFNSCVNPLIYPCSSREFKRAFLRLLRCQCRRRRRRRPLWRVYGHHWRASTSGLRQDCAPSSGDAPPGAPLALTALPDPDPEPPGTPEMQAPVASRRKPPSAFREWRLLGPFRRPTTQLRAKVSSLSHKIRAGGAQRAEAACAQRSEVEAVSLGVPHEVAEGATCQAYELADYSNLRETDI
Type of assay: cell membranes, HEK293, Membrane. The settings on record: hek293.

Assay [5] in a line: DRUGMATRIX: GABAA, Flunitrazepam, Central radioligand binding (ligand: [3H] Flunitrazepam). Type of assay: cell membranes, Rattus norvegicus, Wistar, Brain, Membrane. The settings on record: Not Active = under 50% inhibition at 10 µM.

Consider `NCCCC[C@H](N[C@@H](CCc1ccccc1)C(=O)O)C(=O)N1CCC[C@H]1C(=O)O` [LISINOPRIL ANHYDROUS], for which the IC50 result (in assay [1]; against B2 bradykinin receptor; in assay [2]; in assay [3] (cho-k1); on Progesterone receptor; on Interstitial collagenase) was “Not Active” throughout. Besides, the half-inhibitory concentration (IC50) result in assay [4] and in assay [5] was “Not Active” in each case. Moreover, the Ki entry in assay [1] and in assay [5] was “Not Active” each time.

Consider `COC(=O)c1ccc(O)cc1` [METHYLPARABEN], for which the 50% inhibitory concentration (IC50) entry (in assay [1]; against B2 bradykinin receptor; in assay [2]; in assay [3] (cho-k1); at Progesterone receptor; at Interstitial collagenase) was “Not Active” in each case. Moreover, the IC50 entry in assay [4] and in assay [5] was “Not Active” each time. Moreover, the Ki result in assay [1] and in assay [5] was “Not Active” each time.

For the molecule `C[C@](N)(Cc1ccc(O)cc1)C(=O)O` [METYROSINE], the 50% inhibitory concentration (IC50) result (in assay [1]; on B2 bradykinin receptor; in assay [2]; in assay [3] (cho-k1); on Progesterone receptor; against Interstitial collagenase) was “Not Active” in each case. Besides, the half-inhibitory concentration (IC50) entry in assay [4] and in assay [5] was “Not Active” in each case. The inhibition constant Ki entry in assay [1] and in assay [5] was “Not Active” throughout.

Consider `Clc1ccc(C(c2ccccc2Cl)C(Cl)Cl)cc1` (stereo not drawn) [MITOTANE], for which the 50% inhibitory concentration (IC50) result (in assay [1]; at B2 bradykinin receptor; in assay [2]; in assay [3] (cho-k1); on Progesterone receptor; on Interstitial collagenase) was “Not Active” in each case. The IC50 result in assay [4] and in assay [5] was “Not Active” in each case. For the same molecule, the inhibitory constant (Ki) result in assay [1] and in assay [5] was “Not Active” throughout.

Regarding `COc1c(C)c2c(c(O)c1C/C=C(\C)CCC(=O)OCCN1CCOCC1)C(=O)OC2` [MYCOPHENOLATE MOFETIL], the IC50 result (in assay [1]; against B2 bradykinin receptor; in assay [2]; in assay [3] (cho-k1); on Progesterone receptor; on Interstitial collagenase) was “Not Active” each time. In addition, the IC50 entry in assay [4] and in assay [5] was “Not Active” in each case. The Ki entry in assay [1] and in assay [5] was “Not Active” in each case.

For `COC(=O)C1=C(C)NC(C)=C(C(=O)OC)C1c1ccccc1[N+](=O)[O-]` [NIFEDIPINE], the 50% inhibitory concentration (IC50) (usually the concentration that inhibits the measured activity by half) in assay [1] was “Not Active”; against B2 bradykinin receptor, “Not Active”; in assay [2] it was “Not Active”; in assay [3] (read-out: IC50) it was 18.3 µM; at Progesterone receptor, “Not Active”; on Interstitial collagenase, “Not Active”. Also, the IC50 entry in assay [4] and in assay [5] was “Not Active” throughout. Further, the Ki (commonly the equilibrium dissociation constant of an inhibitor or competing ligand from its target) in assay [1] was “Not Active”; in assay [3] (read-out: Ki), 9.57 µM; in assay [5] it was “Not Active”.

On to `NNc1ccccc1` [PHENYLHYDRAZINE], for which the IC50 entry (in assay [1]; at B2 bradykinin receptor; in assay [2]; in assay [3] (cho-k1); on Progesterone receptor; against Interstitial collagenase) was “Not Active” throughout. The IC50 result in assay [4] and in assay [5] was “Not Active” in each case. Moreover, the inhibitory constant (Ki) result in assay [1] and in assay [5] was “Not Active” in each case.

Consider `CC(=O)[C@H]1CC[C@H]2[C@@H]3CCC4=CC(=O)CC[C@]4(C)[C@H]3CC[C@]12C` [PROGESTERONE], for which the half-inhibitory concentration (IC50) result in assay [1] is “Not Active”; against B2 bradykinin receptor it was “Not Active”; in assay [2], “Not Active”; in assay [3] (cho-k1), “Not Active”; at Progesterone receptor (read-out: IC50), 0.028 µM; at Interstitial collagenase it was “Not Active”. Moreover, the half-inhibitory concentration (IC50) entry in assay [4] and in assay [5] was “Not Active” each time. In addition, the inhibitory constant (Ki) result was “Not Active” in assay [1], 0.00362 µM on Progesterone receptor (read-out: Ki) and “Not Active” in assay [5].

Turning to `NC(=O)c1ncn([C@@H]2O[C@H](CO)[C@@H](O)[C@H]2O)n1` [RIBAVIRIN], the IC50 result (in assay [1]; against B2 bradykinin receptor; in assay [2]; in assay [3] (cho-k1); on Progesterone receptor; against Interstitial collagenase) was “Not Active” throughout. Moreover, the IC50 result in assay [4] and in assay [5] was “Not Active” throughout. The inhibition constant Ki result in assay [1] and in assay [5] was “Not Active” each time.

Take `O=[N+]([O-])c1cc([As](=O)(O)O)ccc1O` [ROXARSONE]: the IC50 result (in assay [1]; against B2 bradykinin receptor; in assay [2]; in assay [3] (cho-k1); on Progesterone receptor; on Interstitial collagenase) was “Not Active” in each case. Besides, the 50% inhibitory concentration (IC50) entry in assay [4] and in assay [5] was “Not Active” in each case. The inhibitory constant (Ki) result (in assay [1]; at B2 bradykinin receptor; in assay [2]; in assay [3] (cho-k1); on Progesterone receptor; on Interstitial collagenase) was “Not Active” throughout. Further, the inhibitory constant (Ki) entry in assay [4] and in assay [5] was “Not Active” throughout.
